# According to ChEMBL document CHEMBL1201861, “Genomics of Drug Sensitity in Cancer screening data, Wellcome Trust Sanger Institute”:
# Tests used:
# Assay in all cases: cells
# [1] = tested on: COLO-792; format: functional, cell-based, Homo sapiens; conditions: Homo sapiens, COLO-792
# Description: SANGER: Inhibition of human COLO-792 cell growth in a cell viability assay.
# [2] = tested on: COLO-824; format: functional, cell-based, Homo sapiens; conditions: Homo sapiens, COLO-824
# Description: SANGER: Inhibition of human COLO-824 cell growth in a cell viability assay.
# [3] = tested on: D-263MG; format: functional, cell-based, Homo sapiens; conditions: Homo sapiens, D-263MG
# Description: SANGER: Inhibition of human D-263MG cell growth in a cell viability assay.
# [4] = tested on: D-542MG; format: functional, cell-based, Homo sapiens; conditions: Homo sapiens, D-542MG
# Description: SANGER: Inhibition of human D-542MG cell growth in a cell viability assay.
# [5] = tested on: Daoy; format: functional, cell-based, Homo sapiens; conditions: Homo sapiens, Daoy;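 also: daoy cell growth inhibition, read out as cell viability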
# Description: SANGER: Inhibition of human Daoy cell growth in a cell viability assay.
# [6] = tested on: EFO-21; format: functional, cell-based, Homo sapiens; conditions: Homo sapiens, EFO-21;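 also: growth inhibition of EFO-21 cells measured with a viability assay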
# Description: SANGER: Inhibition of human EFO-21 cell growth in a cell viability assay.
# [7] = tested on: ES7; format: functional, cell-based, Homo sapiens; conditions: Homo sapiens, ES7;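 also: growth inhibition of cultured human ES7 cells, read out as cell viability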
# Description: SANGER: Inhibition of human ES7 cell growth in a cell viability assay.
# [8] = tested on: ES8; format: functional, cell-based, Homo sapiens; conditions: Homo sapiens, ES8;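 also: growth inhibition of human ES8 cells, read out with a cell viability assay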
# Description: SANGER: Inhibition of human ES8 cell growth in a cell viability assay.
# [9] = tested on: EW-1; format: functional, cell-based, Homo sapiens; conditions: Homo sapiens, EW-1;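 also: growth inhibition of the human EW-1 cell line, read out by a cell viability assay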
# Description: SANGER: Inhibition of human EW-1 cell growth in a cell viability assay.
# [10] = tested on: EW-13; format: functional, cell-based; conditions: Homo sapiens;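 also: growth inhibition of EW-13 cells, read out with a cell viability assay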
# Description: SANGER: Inhibition of human EW-13 cell growth in a cell viability assay.
# [11] = tested on: HCC1806; format: functional, cell-based, Homo sapiens; conditions: Homo sapiens, HCC1806;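 also: growth inhibition of the cancer cell line, determined with a cell viability assay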
# Description: SANGER: Inhibition of human HCC1806 cell growth in a cell viability assay.
# [12] = tested on: HCC1937; format: functional, cell-based, Homo sapiens; conditions: Homo sapiens, HCC1937;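 also: growth inhibition measured with a cell viability read-out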
# Description: SANGER: Inhibition of human HCC1937 cell growth in a cell viability assay.
# [13] = tested on: HCC70; format: functional, cell-based, Homo sapiens; conditions: Homo sapiens, HCC70;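 also: cell viability assay measuring how strongly the compound suppresses proliferation of HCC70 cells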
# Description: SANGER: Inhibition of human HCC70 cell growth in a cell viability assay.
# [14] = tested on: HD-MY-Z; format: functional, cell-based, Homo sapiens; conditions: Homo sapiens, HD-MY-Z;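 also: growth inhibition of HD-MY-Z cells, read out with a cell viability assay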
# Description: SANGER: Inhibition of human HD-MY-Z cell growth in a cell viability assay.
# [15] = tested on: HGC-27; format: functional, cell-based, Homo sapiens; conditions: Homo sapiens, HGC-27;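 also: growth inhibition of human HGC-27 cells, read out in a cell viability assay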
# Description: SANGER: Inhibition of human HGC-27 cell growth in a cell viability assay.
# [16] = tested on: HOP-62; format: functional, cell-based, Homo sapiens; conditions: Homo sapiens, HOP-62;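 also: cell growth inhibition determined with a viability assay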
# Description: SANGER: Inhibition of human HOP-62 cell growth in a cell viability assay.
# [17] = tested on: HuO-3N1; format: functional, cell-based, Homo sapiens; conditions: Homo sapiens, HuO-3N1;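 also: cell viability readout used to measure how strongly compounds suppress proliferation of human HuO-3N1 cells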
# Description: SANGER: Inhibition of human HuO-3N1 cell growth in a cell viability assay.
# [18] = tested on: J82; format: functional, cell-based; conditions: Homo sapiens;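 also: growth inhibition of J82 cells, read out with a cell viability assay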
# Description: SANGER: Inhibition of human J82 cell growth in a cell viability assay.
# [19] = tested on: KYSE-270; format: functional, cell-based, Homo sapiens; conditions: Homo sapiens, KYSE-270;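 also: cell growth inhibition measured with a viability assay in the human KYSE-270 line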
# Description: SANGER: Inhibition of human KYSE-270 cell growth in a cell viability assay.
# [20] = tested on: LoVo; format: functional, cell-based; conditions: Homo sapiens;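 also: growth inhibition of human LoVo cells, read out with a cell viability assay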
# Description: SANGER: Inhibition of human LoVo cell growth in a cell viability assay.
# [21] = tested on: MDA-MB-157; format: functional, cell-based, Homo sapiens; conditions: Homo sapiens, MDA-MB-157
# Description: SANGER: Inhibition of human MDA-MB-157 cell growth in a cell viability assay.
# [22] = tested on: MDA-MB-231; format: functional, cell-based, Homo sapiens; conditions: Homo sapiens, MDA-MB-231
# Description: SANGER: Inhibition of human MDA-MB-231 cell growth in a cell viability assay.
# [23] = tested on: MG-63; format: functional, cell-based, Homo sapiens; conditions: Homo sapiens, MG-63;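 also: growth inhibition of human MG-63 cells, read out with a cell viability assay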
# Description: SANGER: Inhibition of human MG-63 cell growth in a cell viability assay.
# [24] = tested on: MKN-7; format: functional, cell-based, Homo sapiens; conditions: Homo sapiens, MKN-7;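 also: growth inhibition of MKN-7 cells, read out with a cell viability assay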
# Description: SANGER: Inhibition of human MKN7 cell growth in a cell viability assay.
# [25] = tested on: MOLT-4; format: functional, cell-based; conditions: Homo sapiens;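 also: growth inhibition of MOLT-4 cells, determined with a cell viability readout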
# Description: SANGER: Inhibition of human MOLT-4 cell growth in a cell viability assay.
# [26] = tested on: NB14; format: functional, cell-based; conditions: Homo sapiens;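 also: growth inhibition of NB14 cells measured with a cell viability assay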
# Description: SANGER: Inhibition of human NB14 cell growth in a cell viability assay.
# [27] = tested on: NCI-H1155; format: functional, cell-based; conditions: Homo sapiens;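 also: cell growth inhibition measured by a viability assay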
# Description: SANGER: Inhibition of human NCI-H1155 cell growth in a cell viability assay.
# [28] = tested on: NCI-H1355; format: functional, cell-based, Homo sapiens; conditions: Homo sapiens, NCI-H1355;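 also: growth inhibition of human NCI-H1355 cells, read out by a cell viability assay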
# Description: SANGER: Inhibition of human NCI-H1355 cell growth in a cell viability assay.
# [29] = tested on: NCI-H2030; format: functional, cell-based, Homo sapiens; conditions: Homo sapiens, NCI-H2030;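 also: growth inhibition of human NCI-H2030 cells, read out by a cell viability assay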
# Description: SANGER: Inhibition of human NCI-H2030 cell growth in a cell viability assay.
# [30] = tested on: NCI-H28; format: functional, cell-based, Homo sapiens; conditions: Homo sapiens, NCI-H28;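 also: growth inhibition of human NCI-H28 cells, read out as cell viability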
# Description: SANGER: Inhibition of human NCI-H28 cell growth in a cell viability assay.
# [31] = tested on: NTERA-2-cl-D1; format: functional, cell-based, Homo sapiens; conditions: Homo sapiens, NTERA-2-cl-D1;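 also: inhibition of cell growth, measured with a cell viability assay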
# Description: SANGER: Inhibition of human NTERA-S-cl-D1 cell growth in a cell viability assay.
# [32] = tested on: PANC-03-27; format: functional, cell-based, Homo sapiens; conditions: Homo sapiens, PANC-03-27
# Description: SANGER: Inhibition of human PANC-03-27 cell growth in a cell viability assay.
# [33] = tested on: RMG-I; format: functional, cell-based, Homo sapiens; conditions: Homo sapiens, RMG-I;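 also: growth inhibition of human RMG-I cells, read out with a cell viability assay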
# Description: SANGER: Inhibition of human RMG-I cell growth in a cell viability assay.
# [34] = tested on: RO82-W-1; format: functional, cell-based, Homo sapiens; conditions: Homo sapiens, RO82-W-1;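 also: growth inhibition of human RO82-W-1 cells, measured with a cell viability assay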
# Description: SANGER: Inhibition of human RO82-W-1 cell growth in a cell viability assay.
# [35] = tested on: SNU-C2B; format: functional, cell-based, Homo sapiens; conditions: Homo sapiens, SNU-C2B;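 also: cell viability readout used to measure compound-driven suppression of SNU-C2B cell proliferation, IC50 marking half-maximal growth inhibition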
# Description: SANGER: Inhibition of human SNU-C2B cell growth in a cell viability assay.
# [36] = tested on: SW1088; format: functional, cell-based, Homo sapiens; conditions: Homo sapiens, SW1088;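 also: growth inhibition of human SW1088 cells, read out by a cell viability assay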
# Description: SANGER: Inhibition of human SW1088 cell growth in a cell viability assay.
# [37] = tested on: SW48; format: functional, cell-based, Homo sapiens; conditions: Homo sapiens, SW48;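 also: growth inhibition of SW48 cells, read out with a cell viability assay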
# Description: SANGER: Inhibition of human SW48 cell growth in a cell viability assay.
# [38] = tested on: SW982; format: functional, cell-based; conditions: Homo sapiens;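 also: growth inhibition of SW982 cells, read out with a cell viability assay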
# Description: SANGER: Inhibition of human SW982 cell growth in a cell viability assay.
# [39] = tested on: 769-P; format: functional, cell-based, Homo sapiens; conditions: Homo sapiens, 769-P
# Description: SANGER: Inhibition of human 769-P cell growth in a cell viability assay.
# [40] = tested on: A2058; format: functional, cell-based; conditions: Homo sapiens;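 also: reduction of A2058 cell growth, read out with a viability assay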
# Description: SANGER: Inhibition of human A2058 cell growth in a cell viability assay.
# [41] = tested on: ABC-1; format: functional, cell-based, Homo sapiens; conditions: Homo sapiens, ABC-1;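 also: growth inhibition of human ABC-1 cells, read out by a cell viability assay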
# Description: SANGER: Inhibition of human ABC-1 cell growth in a cell viability assay.
# [42] = tested on: BT-474; format: functional, cell-based, Homo sapiens; conditions: Homo sapiens, BT-474
# Description: SANGER: Inhibition of human BT-474 cell growth in a cell viability assay.
# [43] = tested on: C2BBe1; format: functional, cell-based, Homo sapiens; conditions: Homo sapiens, C2BBe1;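 also: growth inhibition of C2BBe1 cells, read out through a viability assay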
# Description: SANGER: Inhibition of human C2BBe1 cell growth in a cell viability assay.
# [44] = tested on: CAKI-1; format: functional, cell-based, Homo sapiens; conditions: Homo sapiens, CAKI-1;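 also: growth inhibition of CAKI-1 cells, measured by a cell viability assay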
# Description: SANGER: Inhibition of human CAKI-1 cell growth in a cell viability assay.
# [45] = tested on: TE-6; format: functional, cell-based, Homo sapiens; conditions: Homo sapiens, TE-6;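 also: growth inhibition of TE-6 cells, read out with a cell viability assay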
# Description: SANGER: Inhibition of human TE-6 cell growth in a cell viability assay.
# [46] = tested on: TYK-nu; format: functional, cell-based, Homo sapiens; conditions: Homo sapiens, TYK-nu;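 also: growth inhibition of human TYK-nu cells, read out by a cell viability assay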
# Description: SANGER: Inhibition of human TYK-nu cell growth in a cell viability assay.
# [47] = tested on: YAPC; format: functional, cell-based, Homo sapiens; conditions: Homo sapiens, YAPC;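 also: growth inhibition of YAPC cells, measured with a cell viability assay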
# Description: SANGER: Inhibition of human YAPC cell growth in a cell viability assay.
# [48] = tested on: COLO-320-HSR; format: functional, cell-based; conditions: Homo sapiens;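 also: growth inhibition of COLO-320-HSR cells, determined with a cell viability assay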
# Description: SANGER: Inhibition of human COLO-320-HSR cell growth in a cell viability assay.
# [49] = tested on: COLO-668; format: functional, cell-based, Homo sapiens; conditions: Homo sapiens, COLO-668
# Description: SANGER: Inhibition of human COLO-668 cell growth in a cell viability assay.
# [50] = tested on: COLO-680N; format: functional, cell-based, Homo sapiens; conditions: Homo sapiens, COLO-680N;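 also: cell viability assay used to measure inhibition of COLO-680N cell growth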
# Description: SANGER: Inhibition of human COLO-680N cell growth in a cell viability assay.
smiles,measurement,setting,value
O=c1cc(-c2cccc3c2Sc2ccccc2S3)oc(N2CCOCC2)c1 [KU-55933],IC50,[1],> 10 µM
same,IC50,[2],> 10 µM
same,IC50,[3],> 10 µM
same,IC50,[4],> 10 µM
same,IC50,[5],> 10 µM
same,IC50,[6],> 10 µM
same,IC50,[7],> 10 µM
same,IC50,[8],> 10 µM
same,IC50,[9],> 10 µM
same,IC50,[10],> 10 µM
same,IC50,[11],> 10 µM
same,IC50,[12],> 10 µM
same,IC50,[13],> 10 µM
same,IC50,[14],> 10 µM
same,IC50,[15],> 10 µM
same,IC50,[16],> 10 µM
same,IC50,[17],4.17 µM
same,IC50,[18],> 10 µM
same,IC50,[19],> 10 µM
same,IC50,[20],6.93 µM
same,IC50,[21],> 10 µM
same,IC50,[22],> 10 µM
same,IC50,[23],> 10 µM
same,IC50,[24],> 10 µM
same,IC50,[25],> 10 µM
same,IC50,[26],> 10 µM
same,IC50,[27],> 10 µM
same,IC50,[28],> 10 µM
same,IC50,[29],> 10 µM
same,IC50,[30],> 10 µM
same,IC50,[31],> 10 µM
same,IC50,[32],> 10 µM
same,IC50,[33],> 10 µM
same,IC50,[34],> 10 µM
same,IC50,[35],> 10 µM
same,IC50,[36],> 10 µM
same,IC50,[37],> 10 µM
same,IC50,[38],> 10 µM
same,IC50,[39],> 10 µM
same,IC50,[40],> 10 µM
same,IC50,[41],> 10 µM
same,IC50,[42],> 10 µM
same,IC50,[43],> 10 µM
same,IC50,[44],> 10 µM
same,IC50,[45],> 10 µM
same,IC50,[46],> 10 µM
same,IC50,[47],> 10 µM
same,IC50,[48],> 10 µM
same,IC50,[49],> 10 µM
same,IC50,[50],> 10 µM
Cn1cc(C2=C(c3ccc(Cl)cc3Cl)C(=O)NC2=O)c2ccccc21 [SB-216763],IC50,[1],> 10 µM
same,IC50,[2],> 10 µM
same,IC50,[3],> 10 µM
same,IC50,[4],> 10 µM
same,IC50,[5],> 10 µM
same,IC50,[6],> 10 µM
same,IC50,[7],> 10 µM
same,IC50,[8],> 10 µM
same,IC50,[9],> 10 µM
same,IC50,[10],> 10 µM
same,IC50,[11],> 10 µM
same,IC50,[12],> 10 µM
same,IC50,[13],> 10 µM
same,IC50,[14],> 10 µM
same,IC50,[15],> 10 µM
same,IC50,[16],0.853 µM
same,IC50,[17],> 10 µM
same,IC50,[18],> 10 µM
same,IC50,[19],> 10 µM
same,IC50,[20],> 10 µM
same,IC50,[21],> 10 µM
same,IC50,[22],> 10 µM
same,IC50,[23],> 10 µM
same,IC50,[24],> 10 µM
same,IC50,[25],> 10 µM
same,IC50,[26],> 10 µM
same,IC50,[27],> 10 µM
same,IC50,[28],> 10 µM
same,IC50,[29],> 10 µM
same,IC50,[30],> 10 µM
same,IC50,[31],> 10 µM
same,IC50,[32],> 10 µM
same,IC50,[33],> 10 µM
same,IC50,[34],> 10 µM
same,IC50,[35],> 10 µM
same,IC50,[36],> 10 µM
same,IC50,[37],> 10 µM
same,IC50,[38],> 10 µM
same,IC50,[39],> 10 µM
same,IC50,[40],> 10 µM
same,IC50,[41],> 10 µM
same,IC50,[42],> 10 µM
same,IC50,[43],> 10 µM
same,IC50,[44],> 10 µM
same,IC50,[45],> 10 µM
same,IC50,[46],> 10 µM
same,IC50,[47],> 10 µM
same,IC50,[48],> 10 µM
same,IC50,[49],> 10 µM
same,IC50,[50],> 10 µM
